# In PubChem BioAssay AID1259407 (Chemical Carcinogenesis Research Information System (CCRIS), 2018):
# Activity calls are given as the source filed them. No rule for the calls is given here.
# Tested on: CCRIS mutagenicity, Ames/micronucleus/aberration tests
# Assay: CCRIS mutagenicity studies
# [1] = Test System: AMES SALMONELLA TYPHIMURIUM, Strain/Indicator: TA98, Metabolic Activation: NONE, Method: STANDARD PLATE
# [2] = Test System: AMES SALMONELLA TYPHIMURIUM, Strain/Indicator: TA100, Metabolic Activation: NONE, Method: STANDARD PLATE
# [3] = Test System: AMES SALMONELLA TYPHIMURIUM, Strain/Indicator: TA100, Metabolic Activation: RAT, LIVER, S-9, AROCLOR 1254, Method: STANDARD PLATE
# [4] = Test System: AMES SALMONELLA TYPHIMURIUM, Strain/Indicator: TA98, Metabolic Activation: NONE, Method: PREINCUBATION
# [5] = Test System: AMES SALMONELLA TYPHIMURIUM, Strain/Indicator: TA100, Metabolic Activation: HAMSTER, LIVER, S-9, AROCLOR 1254 (10%), Method: PREINCUBATION
# [6] = Test System: AMES SALMONELLA TYPHIMURIUM, Strain/Indicator: TA100, Metabolic Activation: NONE, Method: PREINCUBATION
# [7] = Test System: AMES SALMONELLA TYPHIMURIUM, Strain/Indicator: TA100, Metabolic Activation: RAT, LIVER, S-9, AROCLOR 1254 (10%), Method: PREINCUBATION
# [8] = Test System: AMES SALMONELLA TYPHIMURIUM, Strain/Indicator: TA1535, Metabolic Activation: HAMSTER, LIVER, S-9, AROCLOR 1254 (10%), Method: PREINCUBATION
# [9] = Test System: AMES SALMONELLA TYPHIMURIUM, Strain/Indicator: TA1535, Metabolic Activation: NONE, Method: PREINCUBATION
# [10] = Test System: AMES SALMONELLA TYPHIMURIUM, Strain/Indicator: TA1535, Metabolic Activation: RAT, LIVER, S-9, AROCLOR 1254 (10%), Method: PREINCUBATION
# [11] = Test System: MOUSE LYMPHOMA, Strain/Indicator: L5178Y (TK+/TK-), Metabolic Activation: NONE, Method: SUSPENSION/PLATE
# [12] = Test System: MOUSE LYMPHOMA, Strain/Indicator: L5178Y (TK+/TK-), Metabolic Activation: RAT, LIVER, S-9, AROCLOR 1254, Method: SUSPENSION/PLATE
compound,measurement,setting,value
CC(=O)c1cccn1[N+](=O)[O-],mutagenic call,[1],active; positive
same,mutagenic call,"Test System: AMES SALMONELLA TYPHIMURIUM, Strain/Indicator: TA98, Metabolic Activation: RAT, LIVER, S-9, AROCLOR 1254, Method: STANDARD PLATE",active; positive
same,mutagenic call,[2],active; positive
same,mutagenic call,[3],active; positive
CCOC(/C=C(\C)CCC=C(C)C)OCC,mutagenic call,"Test System: AMES SALMONELLA TYPHIMURIUM, Strain/Indicator: TA97, Metabolic Activation: HAMSTER, LIVER, S-9, AROCLOR 1254 (10%), Method: PREINCUBATION",inactive; negative
same,mutagenic call,"Test System: AMES SALMONELLA TYPHIMURIUM, Strain/Indicator: TA97, Metabolic Activation: NONE, Method: PREINCUBATION",inactive; negative
same,mutagenic call,"Test System: AMES SALMONELLA TYPHIMURIUM, Strain/Indicator: TA97, Metabolic Activation: RAT, LIVER, S-9, AROCLOR 1254 (10%), Method: PREINCUBATION",inactive; negative
same,mutagenic call,"Test System: AMES SALMONELLA TYPHIMURIUM, Strain/Indicator: TA98, Metabolic Activation: HAMSTER, LIVER, S-9, AROCLOR 1254 (10%), Method: PREINCUBATION",inactive; negative
same,mutagenic call,[4],inactive; negative
same,mutagenic call,"Test System: AMES SALMONELLA TYPHIMURIUM, Strain/Indicator: TA98, Metabolic Activation: RAT, LIVER, S-9, AROCLOR 1254 (10%), Method: PREINCUBATION",inactive; negative
same,mutagenic call,[5],inactive; negative
same,mutagenic call,[6],inactive; negative
same,mutagenic call,[7],inactive; negative
same,mutagenic call,[8],active; positive
same,mutagenic call,[9],inactive; negative
same,mutagenic call,[10],active; positive
ClC/C=C\CCl,mutagenic call,"Test System: AMES SALMONELLA TYPHIMURIUM, Strain/Indicator: TA98, Metabolic Activation: HAMSTER, LIVER, S-9, AROCLOR 1254 (10%), Method: STANDARD PLATE",active; positive
same,mutagenic call,"Test System: AMES SALMONELLA TYPHIMURIUM, Strain/Indicator: TA100, Metabolic Activation: HAMSTER, LIVER, S-9, AROCLOR 1254 (10%), Method: STANDARD PLATE",active; positive
same,mutagenic call,[2],active; positive
same,mutagenic call,"Test System: AMES SALMONELLA TYPHIMURIUM, Strain/Indicator: TA100, Metabolic Activation: RAT, LIVER, S-9, AROCLOR 1254 (10%), Method: STANDARD PLATE",active; positive
same,mutagenic call,[11],active; positive. reevaluation of results: positive
same,mutagenic call,[12],active; positive. reevaluation of results: positive
C=CC1CO1 (stereo not given),mutagenic call,"End Point: IN VIVO CHROMOSOMAL ABERRATIONS, Test System: BONE MARROW CELLS, Species: MOUSE, Strain/Sex: C57B1/6/MALE, Route: IP INJECTION (ONCE)",active; positive
same,mutagenic call,"End Point: IN VIVO MICRONUCLEUS, Test System: BONE MARROW POLYCHROMATIC ERYTHROCYTES, Species: MOUSE, Strain/Sex: C57/BL/MALE, Route: INTRAPERITONEAL INJECTION",active; positive
same,mutagenic call,"End Point: IN VIVO MICRONUCLEUS, Test System: PERIPHERAL BLOOD RETICULOCYTES, Species: MOUSE, Strain/Sex: BALB/C/MALE, Route: IP INJECTION, ONCE",active; positive
same,mutagenic call,"End Point: IN VIVO MICRONUCLEUS, Test System: SPERMATID, Species: RAT, Strain/Sex: SPRAGUE-DAWLEY/MALE, Route: IP INJECTION",active; positive
same,mutagenic call,"End Point: IN VIVO MICRONUCLEUS, Test System: SPERMATIDS, Species: MOUSE, Strain/Sex: (102XC3H)F1/MALE, Route: IP INJECTION",active; positive only at 14 d and higher dose levels
same,mutagenic call,"End Point: IN VIVO MICRONUCLEUS, Test System: SPERMATIDS, Species: MOUSE, Strain/Sex: BALB/C/MALE, Route: IP INJECTION, ONCE",active; positive (positive in golgi-phase and at highest dose after 14 or 16 d)
same,mutagenic call,"End Point: IN VIVO MICRONUCLEUS, Test System: SPERMATIDS, Species: RAT, Strain/Sex: LEWIS/MALE, Route: IP INJECTION",active; positive
same,mutagenic call,"End Point: IN VIVO MICRONUCLEUS, Test System: SPLENOCYTES, Species: MOUSE, Strain/Sex: (102XC3H)F1/MALE, Route: IP INJECTION",active; positive
same,mutagenic call,"End Point: IN VIVO MICRONUCLEUS, Test System: SPLENOCYTES, Species: MOUSE, Strain/Sex: BALB/C, Route: IP",active; positive only for 48.8 mg dose at either 2 or 16 d after treatment
same,mutagenic call,"End Point: IN VIVO MICRONUCLEUS, Test System: SPLENOCYTES, Species: RAT, Strain/Sex: LEWIS/MALE, Route: IP INJECTION",active; positive
same,mutagenic call,[1],inactive; negative
same,mutagenic call,[5],active; positive
same,mutagenic call,[6],active; positive
same,mutagenic call,[2],active; positive
same,mutagenic call,[7],active; positive
same,mutagenic call,[3],active; positive
same,mutagenic call,[8],active; positive
same,mutagenic call,[9],active; positive
same,mutagenic call,"Test System: AMES SALMONELLA TYPHIMURIUM, Strain/Indicator: TA1535, Metabolic Activation: NONE, Method: STANDARD PLATE",active; positive
same,mutagenic call,[10],active; positive
same,mutagenic call,"Test System: UDS MOUSE SPERM CELL, Strain/Indicator: THY INCORP, Metabolic Activation: IN VIVO, Method: LIQUID SCINTILLATION COUNTING",inactive; negative
same,mutagenic call,"Test System: UDS RODENT HEPATOCYTES, Strain/Indicator: THY INCORP (NON-S-PHASE), Metabolic Activation: NONE, Method: AUTORADIOGRAPHY",inactive; negative
C[C@]12C=CC(=O)C=C1CC[C@@H]1[C@@H]2[C@@H](O)C[C@@]2(C)[C@H]1CC[C@]2(O)C(=O)CO,mutagenic call,[4],inactive; negative
same,mutagenic call,"Test System: AMES SALMONELLA TYPHIMURIUM, Strain/Indicator: TA98, Metabolic Activation: S-9, Method: PREINCUBATION",inactive; negative
same,mutagenic call,[6],inactive; negative
same,mutagenic call,"Test System: AMES SALMONELLA TYPHIMURIUM, Strain/Indicator: TA100, Metabolic Activation: S-9, Method: PREINCUBATION",inactive; negative
same,mutagenic call,[11],inactive; negative
same,mutagenic call,[12],active; positive
Clc1ncnc2nc[nH]c12,mutagenic call,[2],active; positive
Oc1cc(Cl)c(O)cc1Cl,mutagenic call,"Test System: AMES SALMONELLA TYPHIMURIUM, Strain/Indicator: TA98, Metabolic Activation: NONE",inactive; negative
same,mutagenic call,"Test System: AMES SALMONELLA TYPHIMURIUM, Strain/Indicator: TA98, Metabolic Activation: RAT, LIVER, S-9, AROCLOR 1254",inactive; negative
same,mutagenic call,"Test System: AMES SALMONELLA TYPHIMURIUM, Strain/Indicator: TA100, Metabolic Activation: NONE",inactive; negative
same,mutagenic call,"Test System: AMES SALMONELLA TYPHIMURIUM, Strain/Indicator: TA100, Metabolic Activation: RAT, LIVER, S-9, AROCLOR 1254",inactive; negative
same,mutagenic call,"Test System: AMES SALMONELLA TYPHIMURIUM, Strain/Indicator: TA102, Metabolic Activation: NONE",inactive; negative
same,mutagenic call,"Test System: AMES SALMONELLA TYPHIMURIUM, Strain/Indicator: TA102, Metabolic Activation: RAT, LIVER, S-9, AROCLOR 1254",inactive; negative
same,mutagenic call,"Test System: AMES SALMONELLA TYPHIMURIUM, Strain/Indicator: TA104, Metabolic Activation: NONE",inactive; negative
same,mutagenic call,"Test System: AMES SALMONELLA TYPHIMURIUM, Strain/Indicator: TA104, Metabolic Activation: RAT, LIVER, S-9, AROCLOR 1254",inactive; negative
CN(C)C(=N)N=C(N)N,mutagenic call,"End Point: In vivo micronucleus, Test System: Bone marrow erythrocytes, Species: Mouse, Strain/Sex: Swiss albino/Male, Route: Oral",inactive; negative
